Results: patent publication US20240299326A1, “METHODS AND COMPOSITIONS FOR TREATING CANCER” (Onconova Therapeutics, Inc., priority 2021, published 2024)
“Also recorded” adds a separate entry of the source.

How the values were obtained:
[1] = Phase 2 open-label single arm clinical study, safety and tolerability; assay type: in vivo, patients; settings: single RDEB patient, CIV infusions
Experimental: A phase 2, open-label single arm was conducted. The study was designed to assess the efficacy and safety of Rigosertib in patients with recessive dystrophic epidermolysis bullosa (RDEB)-associated locally advanced/metastatic squamous cell carcinoma (SCC).
In addition to the assessment of safety and tolerability, efficacy was measured by the overall response rate as assessed by RECIST. Patients were treated until RECIST progression criteria were met (i.e. 20% increase in tumor diameter or appearance of new malignant lesions) for 12 consecutive months or until an unacceptable toxicity or intolerance, or until remission.
The study had two primary endpoints. The first was to determine the anti-tumor activity of rigosertib in RDEB patients with advanced SCC who had failed prior standard of care through the overall response rate (ORR), defined as the proportion of patients who achieved either a complete response (CR) or a partial response (PR). The second primary endpoint was to evaluate the safety and tolerability of rigosertib in the population. Secondary study endpoints included quality of life and a biomarker analysis performed on archival tissue from all patients. Patients were dosed for up to one year, with trial duration anticipated to be approximately two-and-a-half years. […]

SCC RDEB16 keratinocytes = test: Tumor xenograft of SCC RDEB16 keratinocytes, tumor volume by calipers; assay type: in vivo, Balb/c SCID mice; settings: subcutaneous inoculation; dosing after tumors reached 100 mm^3, administered 6 times; harvested day 35; FIG. 2
Experimental: SCC RDEB16 keratinocytes were inoculated subcutaneously to Balb/c SCID mice. After tumors reached 100 mm^3, vehicle control, Rigosertib or Compound 1 (ATP-competitive inhibitor) were administered 6 times and tumor volume was measured with calipers. Tumors were harvested and photographed at day 35.

RDEB SCC keratinocytes = test: Cell death of RDEB SCC keratinocytes after 48 hours exposure, crystal violet staining / phase contrast; assay type: cell-based
Experimental: (§1) Panel A. Cells were seeded at high density and exposed to Rigosertib or vehicle control for 48 hours after which cells were fixed and stained with crystal violet. Panel B. Phase contrast images of unfixed cells in culture after given treatment of either control (left) or Rigosertib (1 μM, right).

[2] = tested on: normal primary keratinocytes; test: Effect on normal primary keratinocytes after 48 hours exposure, crystal violet staining / phase contrast; assay type: cell-based; settings: FIG. 1
Experimental: as §1

[3] = tested on: RDEB-associated locally advanced/metastatic squamous cell carcinoma (SCC); test: Phase 2 open-label single arm clinical study, tumor response (RECIST, MRI, clinical exam, histology); assay type: in vivo, patients
Experimental: The study had two primary endpoints. […] The second primary endpoint was to evaluate the safety and tolerability of rigosertib in the population. Secondary study endpoints included quality of life and a biomarker analysis performed on archival tissue from all patients. Patients were dosed for up to one year, with trial duration anticipated to be approximately two-and-a-half years.
Intravenous dosing: For continuous IV infusion as Rigosertib, sodium salt concentrate, 75 mg/mL, was formulated to contain 75 mg of Rigosertib sodium salt per mL (equivalent to 75 mg of Rigosertib sodium per mL) as a sterile solution in polyethylene glycol 400 (PEG 400) containing a small amount of sodium hydroxide for pH adjustment. Rigosertib.Na 75 mg/mL was packaged in single-use glass vials with Teflon-lined rubber stoppers containing 24 mL of drug product (1800 mg). Just prior to dosing, the Rigosertib concentrate (i.e. 1 glass vial, 24 mL) was diluted to a final volume of 500 ml in 0.9% sodium chloride for injection.
Efficacy Assessments: Overall response rate (ORR) was defined as the proportion of patients who achieved either a CR or a PR. Responses of complete remission (CR), partial remission (PR), mCR, SD, failure, and PD were determined by RECIST criteria. The number and percent of patients with CR, PR, mCR, SD, Failure or PD were summarized.
Response per RECIST criteria: Efficacy assessments included an initial tumor assessment at week 12 (±3 days) after first dose. Further tumor assessments were completed every 12 weeks (±3 days). Study evaluations were performed according to RECIST 1.1 criteria. High resolution CT with oral or IV contrast or contrast-enhanced MRI were used as imaging modalities for assessing radiographic tumor response. Screening/Baseline assessments were within 4 weeks of first dose of study drug. Brain MRI was used as an imaging method for evaluating CNS metastasis, and an assessment was required during screening/baseline and End of Therapy or as clinically indicated.
Target lesions: When more than one measurable lesion was present at baseline, all lesions up to a maximum of 5 lesions total (and a maximum of two lesions per site), representative of all involved sites, were investigated as target lesions and are recorded and measured at baseline. Target lesions were selected on the basis of size (lesions with the longest diameter) and were representative of all involved sites. A sum of the diameters (longest for non-nodal lesions, short axis for nodal lesions) for all target lesions were calculated and reported as the baseline sum diameters. If lymph nodes were included in the sum, only the short axis was added into the sum. The baseline sum diameters were used as reference to characterize any objective tumor regression in the measurable dimension of the disease. […]

[4] = one RDEB patient, intravenous rigosertib, 12 week MRI and clinic visit

COc1cc(OC)c(/C=C/S(=O)(=O)Cc2ccc(OC)c(NCC(=O)O)c2)c(OC)c1 [Rigosertib, (E)-2-(5-((2,4,6-trimethoxystyrylsulfonyl)methyl)-2-methoxyphenylamino)acetic acid]
observed adverse effects [1]: CTCAE grade II irritative cystitis; also recorded: alopecia; also recorded: recurrent episode of bacteriaemia; also recorded: nausea; also recorded: increased lesional pain; also recorded: amenorrhea
safety and tolerability [1]: favorable
tumor growth (tumor volume) of RDEB SCC keratinocytes in vivo (SCC RDEB16 keratinocytes): inhibits RDEB SCC keratinocyte grown in vivo
cell death in RDEB SCC keratinocytes (RDEB SCC keratinocytes; 48 hours exposure, Rigosertib 1 μM in phase contrast images, FIG. 1): induces cell death
specificity / therapeutic window separating tumor and normal cells (RDEB SCC keratinocytes; preclinical models, RDEB SCC keratinocytes vs normal cells): largest therapeutic window separating tumor and normal cells
effect on normal primary keratinocytes [2]: without affecting normal primary keratinocytes
metastatic disease after trial completion ([3]; RDEB patient, 17 treatment cycles): without signs of metastatic disease
remission of target lesions after trial completion ([3]; RDEB patient, 72 hr CIV infusions 1800 mg/24 h days 1-3, 17 treatment cycles): sustained clinical and histological remission of all target lesions
histology of biopsied target lesions (left hand, right elbow) ([3]; V25 (day 169-175)): no histological signs of malignancy
resolution of squamous cell target lesions (left hand), clinical exam and MRI [3, 4]: complete resolution of two of three squamous cell target lesions
third target lesion (right elbow) [3, 4]: reduction in the third target lesion
